Experimental data as given in PMC4633953, “FR171456 is a specific inhibitor of mammalian NSDHL and yeast Erg26p” (Nature Communications, 2015).
Several values for one entry are separate records, joined by “and”; a condition that tells them apart may be missing. Equal entries are not always repeated.

Assays:
[1] = tested on: HepG2; test: Mammalian cell proliferation, HepG2; assay type: cell-based
[2] = tested on: K562; test: Mammalian cell proliferation, K562; assay type: cell-based
[3] = tested on: sterol pathway intermediates in Huh-7 cells; conditions: 80 nM vs 0 nM FR171456, 48 h
Protocol: In an attempt to understand which sterol (and other) metabolites are altered by FR171456 a metabolite-profiling experiment was conducted using cells from the original replicon assay exposed to vehicle or four concentrations of FR171456 (Fig. 1c,f, Methods, supplementary Fig. 2). Peaks in the mass spectra with statistically significant differences in intensities between the high (80 nM) and low (0 nM) concentration samples were selected by P values <0.01 (Student's t-test, Bonferroni corrected) and ranked by fold changes. Metabolite identities were assigned to those peaks whose m/z ratio corresponds to the mass of known metabolites (Supplementary Table 1).
Samples of cell pellets containing 8 × 10^6 cells each were lysed and extracted with 300 μl cold methanol (−80 °C) in ultrasonic bath for 10 min and subsequently agitated for 5 min before centrifugation at 10,000 g for 5 min at 4 °C. The supernatants were removed and the remaining pellets were again extracted twice. The supernatants from three extractions were then combined and dried using a SpeedVac (Savant, Fisher Scientific Inc., USA) for 2 h without heating. The residues were resuspended in 200 μl of 80% MeOH and centrifuged to remove any non-dissolvable particles. Finally, 10 μl of the supernatant was then diluted by factor 100 in MeOH/H2O (1:1) for mass spectrometric analysis.
The diluted sample (100 μl) was infused directly into a LTQ-Orbitrap mass spectrometer (Thermo Fisher Scientific, USA) using a HTC PAL autosampler (CTC Analytics, Zwingen, Switzerland) at a flow rate of 18 μl min^–1. A make-up flow, consisting of 70% ethanol and 0.1% formic acid, was delivered through a T-piece at 15 μl min^–1. Electrospray ionization and selected monitoring scan were applied. The total mass range m/z 100–2,000 was segmented into […] scan events with a width of mass window m/z 50 each. Mass resolution at m/z 400 was 100,000.
Each sample was measured in triplicate in positive ionization mode in random order. For quality and instrument stability control, the samples were interspersed with test mix infusion and pooled samples. Blank spectra were also recorded and the observed mass peaks of solvent and impurities were then suppressed in subsequent analysis.
The measured raw spectra were imported with in-house software written in the Igor package (Wavemetrics Inc.) for alignment, peak detection, and integral normalization. The table of exact peak masses and intensities (Supplementary Data, file Supplementary Dataset 1) were exported into the statistical software R, version 2.15.1, for subsequent univariate statistics and pathway analysis. For peak identification, the KEGG database was searched for matches of the observed peaks with endogenous metabolite entries. Metabolite masses with adducts of H^+, Na^+, or K^+ were considered a hit and possible identity of a peak if the difference between its exact monoisotopic mass and the observed mass plus adducts was below 3 p.p.m.

[4] = tested on: Aspergillus fumigatus NF4905; test: Antifungal MIC; assay type: cell-based
[5] = tested on: Rhizopus oryzae NF4801; test: Antifungal MIC; assay type: cell-based; conditions: Rhizopus arrhizus
[6] = tested on: Erg26p Arg307His; test: In vitro microsomal Erg26p activity assay, mutant; assay type: biochemical, S. cerevisiae; conditions: microsome extracts
Excerpt: (§1) Thus many of the FR171456 resistance mutations were mapped close to the NAD^+ or the substrate-binding site. The presence of three active conservative mutations Arg39Lys, […], and Arg315His in proximity to NAD^+ and substrate-binding site are consistent with FR171456 binding the substrate-binding pocket thus inhibiting the enzymatic activity. To address this more directly, we tested microsome extracts from the erg26Δ haploid yeast strains expressing the Erg26p wild type, Arg39Lys, Arg307His and Arg315His mutants in increasing doses of FR171456 to assess Erg26p mutant activity (Fig. 3b). Whilst Arg39Lys and Arg307His shift the I50 2-fold, Arg315His confers a 20-fold shift in I50. This highlights the importance of the interaction between Arg315 and the carboxyl group of the substrate/inhibitor as one of the most critical in the Erg26p active site (Fig. 3c).
(§2) Wild-type yeast (FL200) microsomes were prepared as follows.

[7] = tested on: Erg26p Arg315His; test: In vitro microsomal Erg26p activity assay, mutant; assay type: biochemical, S. cerevisiae; conditions: microsome extracts
Excerpt: as §1, §2

[8] = tested on: Erg26p Arg39Lys; test: In vitro microsomal Erg26p activity assay, mutant; assay type: biochemical, S. cerevisiae; conditions: microsome extracts
Excerpt: as §1, §2

## C=C(CCC(C)C1CCC2C1(C)CC(O)C13CC14C(=O)CC(O)C(C)(C(=O)O)C4C(=O)CC23O)C(C)C [FR171456, (1R,2aR,3R,5aR,5bS,7aR,8S,9S,11aS,12aR)-1,5b,9-trihydroxy-2a,8-dimethyl-3-((R)-6-methyl-5-methyleneheptan-2-yl)-7,11-dioxohexadecahydrocyclopenta[a]cyclopropa[e]-phenanthrene-8-carboxylic acid]
[1]
  concentration affecting proliferation: 80 µM
[2]
  concentration affecting proliferation: 36 µM
[3]
  Fold change, m/z 401.3418 (calcidiol, 7α-hydroxycholest-4-en-3-one): 0.680
  Fold change, m/z 463.3183 (pfaffic acid): infinite
  Fold change, m/z 465.3339 (4α-methylzymosterol-4-carboxylate): 822.2
  Fold change, m/z 467.3496 (3β-hydroxy-4β-methyl-5α-cholest-7-ene-4α-carboxylate): 3675.4
  Fold change, m/z 489.3314 (not identified): infinite
  Fold change, m/z 1198.8982 (not identified): 9665.6
[4]
  MIC: 16 µg/mL and 36 µM
[5]
  MIC: 8 µg/mL and 18 µM
[6]
  shift in I50 versus wild type: 2 fold
[7]
  shift in I50 versus wild type: 20 fold
[8]
  shift in I50 versus wild type: 2 fold
